Legend:
[1] = molecular target: T1, CYP1A2 (Homo sapiens, UniProt P05177); experiment: Cocktail assay for CYPs in human liver microsomes, phenacetin O-deethylation (1A2); format: biochemical; conditions: 10 μM phenacetin, 10 min at 37° C.
T1 construct: 0.1 mg/mL protein human liver microsomes (BD Gentest); tissue BD Gentest; host or cells: human liver microsomes
T1 sequence (P05177 1-516): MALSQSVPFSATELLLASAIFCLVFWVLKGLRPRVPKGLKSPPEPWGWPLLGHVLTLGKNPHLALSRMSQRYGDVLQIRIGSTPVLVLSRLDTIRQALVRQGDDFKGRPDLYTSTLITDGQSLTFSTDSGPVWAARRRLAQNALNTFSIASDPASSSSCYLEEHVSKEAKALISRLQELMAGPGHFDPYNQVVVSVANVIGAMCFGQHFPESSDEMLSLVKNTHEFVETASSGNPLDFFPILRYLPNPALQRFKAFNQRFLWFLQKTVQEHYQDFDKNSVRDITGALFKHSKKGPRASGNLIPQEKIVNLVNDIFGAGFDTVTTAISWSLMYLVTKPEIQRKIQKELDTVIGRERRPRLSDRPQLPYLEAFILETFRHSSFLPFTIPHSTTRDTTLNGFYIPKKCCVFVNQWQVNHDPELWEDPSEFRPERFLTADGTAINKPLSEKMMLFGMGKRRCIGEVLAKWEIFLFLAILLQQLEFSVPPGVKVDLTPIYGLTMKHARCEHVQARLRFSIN
Protocol: (§1) This assay was performed in a standard 96-well plate design. IC50 values were calculated from the percent inhibition observed for each test compound at 6 concentrations (for example, 0.0032, 0.016, 0.08, 0.4, 2 and 10 μM). The incubation substrate mix contains 10 μM phenacetin (1A2), 5 μM diclofenac (2C9), 30 μM mephenytoin (2C19), 5 μM dextromethorphan (2D6) and 2 μM midazolam (3A4), 0.1 mg/mL protein human liver microsomes (BD Gentest), 1 mM NAPDH, 3.3 mM MgCl2 and 100 mM potassium phosphate buffer (pH 7.4). The production of the metabolite of each probe substrate was determined after incubation for 10 min at 37° C. Quantitation of the metabolite peak area ratio against an internal standard (tolbutamide) was determined by LC/MS/MS analysis following acetonitrile treatment of the incubations.
(§2) Samples were analyzed in the MRM mode with a SCIEX API-4000 mass spectrometer (Applied Biosystems, Foster City, Calif.), with a Shimadzu LC-20 AD pump (Shimadzu corporation, Kyoto, JP) and a CTC PAL autosampler (Agilent Technologies, Switzerland). A Phenomenex, Luna, 5 μm, 100A, 2.00×30 mm HPLC column was used for the separation. The mobile phases were: (A) 0.1% formic acid in water and (B) 0.1% formic acid in acetonitrile. The binary gradient was as follows. AutoSampler: CTC PAL
(§3) The peak area ratio of the analyte to the internal standard was used to quantify the metabolite. The values of peak area ratios in the presence of test compound were compared to those of maximum or minimum controls and were expressed as % inhibition by interpolating between the maximum and minimum peak area ratios. Incubations with no inhibitor were defined as the maxima. The following equation was used to calculate the % inhibition: [1−[(X−Low control)/(High control−Low control)]]*100 For the IC50 calculation, SigmaPlot was used to plot the mean % inhibition versus the test compound concentrations and for non-linear regression analysis of the data. Depending on the range of data points defining the inhibition curve, the data may have been fit to the 4-parameter logistic equation.

[2] = molecular target: T2, CYP2C19 (Homo sapiens, UniProt P33261); experiment: Cocktail assay for CYPs in human liver microsomes, mephenytoin 4′-hydroxylation (2C19); format: biochemical; conditions: 30 μM mephenytoin, 10 min at 37° C.
T2 construct: 0.1 mg/mL protein human liver microsomes (BD Gentest); tissue BD Gentest; host or cells: human liver microsomes
T2 sequence (P33261 whole entry): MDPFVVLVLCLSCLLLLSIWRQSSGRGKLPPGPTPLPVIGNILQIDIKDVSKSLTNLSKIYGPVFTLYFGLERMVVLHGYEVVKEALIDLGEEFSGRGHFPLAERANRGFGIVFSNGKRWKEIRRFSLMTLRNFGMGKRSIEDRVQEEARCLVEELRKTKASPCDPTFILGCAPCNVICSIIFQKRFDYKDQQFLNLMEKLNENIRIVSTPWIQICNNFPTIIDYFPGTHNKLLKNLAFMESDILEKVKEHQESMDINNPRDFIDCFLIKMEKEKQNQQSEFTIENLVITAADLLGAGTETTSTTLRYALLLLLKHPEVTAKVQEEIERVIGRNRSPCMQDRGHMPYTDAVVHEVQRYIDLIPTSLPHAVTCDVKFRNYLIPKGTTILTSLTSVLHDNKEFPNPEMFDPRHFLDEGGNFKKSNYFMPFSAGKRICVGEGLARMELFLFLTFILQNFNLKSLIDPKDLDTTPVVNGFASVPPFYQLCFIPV
Protocol: as §1, §2, §3

[3] = molecular target: T3, human CYP11B1 (Homo sapiens, UniProt P15538); experiment: IC50 vs CYP11B1 by measurement of cortisol synthesis in V79 cells; format: cell-based; conditions: V79 cells expressing human CYP11B1, 1500 nM RSS, cortisol HTRF
T3 construct: expressed in transfected cells
T3 sequence (P15538 25-503): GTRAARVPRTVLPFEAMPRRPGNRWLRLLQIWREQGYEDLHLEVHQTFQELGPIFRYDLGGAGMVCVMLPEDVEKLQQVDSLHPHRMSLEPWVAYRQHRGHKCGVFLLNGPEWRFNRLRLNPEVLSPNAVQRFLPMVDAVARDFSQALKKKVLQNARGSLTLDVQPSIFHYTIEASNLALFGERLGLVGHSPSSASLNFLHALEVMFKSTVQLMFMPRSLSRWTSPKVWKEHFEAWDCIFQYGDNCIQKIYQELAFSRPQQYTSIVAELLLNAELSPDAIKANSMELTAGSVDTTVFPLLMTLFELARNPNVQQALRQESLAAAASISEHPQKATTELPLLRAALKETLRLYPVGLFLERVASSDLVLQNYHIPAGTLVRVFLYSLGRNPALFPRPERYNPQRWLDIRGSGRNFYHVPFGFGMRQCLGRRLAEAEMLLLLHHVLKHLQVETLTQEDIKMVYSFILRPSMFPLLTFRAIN
Protocol: (§4) This assay was performed in a standard 384-well plate design using cultured V79 cells stably expressing human CYP11B1 or human CYP11B2. Test compounds at 10 concentrations (for example, 10000, 3333.3, 1111.1, 370.4, 123.5, 41.2, 13.7, 4.6, 1.5 and 0.5 nM) were added in 384-well plate after the cell-seeding procedure. The incubation substrate contains 1500 nM RSS for CYP11B1 assay/750 nM DOC for CYP11B2 assay. The Cortisol/Aldosterone production of cell culture supernatant was determined by Cortisol/Aldosterone HTRF kit after for about 15 hours incubation at RT (protect from light). IC50 (nM) values were calculated from the percent inhibition observed for each test compound at 10 concentrations.
(§5) The assay plate was read using Envision (Perkin Elmer, Waltham, Mass.) at 665 nm and 590 nm (using Filter Barcode of 217#, 205#; Mirror Barcode of 446#).
(§6) Data are analyzed using Assay Data Analyzer. All ratio data (665 nm/590 nm) are back calculated according to the standard curve, resulting in Cortisol/Aldosterone concentrations. IC50 (nM) values are reported as the Inflection Point (IP) of a four parameter fit of the titration data.
(§7) The following equation was used to calculate the % inhibition: % Activity=100×{1−(Sample_back calculated Cortisol/Aldosterone concentration−LC_back calculated Cortisol/Aldosterone concentration)/(HC_back calculated Cortisol/Aldosterone concentration−LC_back calculated Cortisol/Aldosterone concentration)} Curve Fitting: Four Parameter Logistic: […]

[4] = molecular target: T4, human CYP11B2 (Homo sapiens, UniProt P19099); experiment: IC50 vs CYP11B2 by measurement of aldosterone synthesis in V79 cells; format: cell-based; conditions: V79 cells expressing human CYP11B2, 750 nM DOC, aldosterone HTRF
T4 construct: expressed in transfected cells
T4 sequence (P19099 25-503): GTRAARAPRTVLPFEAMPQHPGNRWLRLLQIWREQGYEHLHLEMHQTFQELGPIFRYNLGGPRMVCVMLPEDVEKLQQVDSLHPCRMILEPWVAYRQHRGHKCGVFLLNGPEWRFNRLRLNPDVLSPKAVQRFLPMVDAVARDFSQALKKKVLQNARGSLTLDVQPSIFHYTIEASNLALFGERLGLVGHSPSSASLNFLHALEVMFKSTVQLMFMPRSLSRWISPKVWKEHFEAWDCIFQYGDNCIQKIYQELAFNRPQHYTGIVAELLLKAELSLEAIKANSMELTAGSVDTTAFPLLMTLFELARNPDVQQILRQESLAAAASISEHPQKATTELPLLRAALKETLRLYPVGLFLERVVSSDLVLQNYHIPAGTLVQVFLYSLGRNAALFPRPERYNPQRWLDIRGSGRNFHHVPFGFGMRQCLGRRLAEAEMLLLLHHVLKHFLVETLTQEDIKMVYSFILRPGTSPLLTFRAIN
Protocol: as §4, §5, §6, §7

[5] = molecular target: T5, CYP2C9 (Homo sapiens, UniProt P11712); experiment: Cocktail assay for CYPs in human liver microsomes, diclofenac 4′-hydroxylation (2C9); format: biochemical; conditions: 5 μM diclofenac, 10 min at 37° C.
T5 construct: 0.1 mg/mL protein human liver microsomes (BD Gentest); tissue BD Gentest; host or cells: human liver microsomes
T5 sequence (P11712 whole entry): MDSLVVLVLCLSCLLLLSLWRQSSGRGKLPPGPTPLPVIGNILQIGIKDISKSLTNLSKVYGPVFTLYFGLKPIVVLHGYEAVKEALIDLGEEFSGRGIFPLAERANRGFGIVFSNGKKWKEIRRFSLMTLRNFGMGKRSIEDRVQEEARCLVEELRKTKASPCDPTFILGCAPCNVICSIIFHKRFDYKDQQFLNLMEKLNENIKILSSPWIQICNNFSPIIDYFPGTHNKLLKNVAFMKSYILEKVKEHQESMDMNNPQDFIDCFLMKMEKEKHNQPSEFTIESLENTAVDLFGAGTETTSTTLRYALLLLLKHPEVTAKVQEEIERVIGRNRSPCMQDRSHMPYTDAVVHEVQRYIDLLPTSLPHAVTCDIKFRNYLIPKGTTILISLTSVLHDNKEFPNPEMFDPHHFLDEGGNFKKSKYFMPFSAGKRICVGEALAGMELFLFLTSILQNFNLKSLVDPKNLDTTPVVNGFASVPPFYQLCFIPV
Protocol: as §1, §2, §3

[6] = molecular target: T6, CYP2D6 (Homo sapiens, UniProt P10635); experiment: Cocktail assay for CYPs in human liver microsomes, dextromethorphan O-demethylation (2D6); format: biochemical; conditions: 5 μM dextromethorphan, 10 min at 37° C.
T6 construct: 0.1 mg/mL protein human liver microsomes (BD Gentest); tissue BD Gentest; host or cells: human liver microsomes
T6 sequence (P10635 whole entry): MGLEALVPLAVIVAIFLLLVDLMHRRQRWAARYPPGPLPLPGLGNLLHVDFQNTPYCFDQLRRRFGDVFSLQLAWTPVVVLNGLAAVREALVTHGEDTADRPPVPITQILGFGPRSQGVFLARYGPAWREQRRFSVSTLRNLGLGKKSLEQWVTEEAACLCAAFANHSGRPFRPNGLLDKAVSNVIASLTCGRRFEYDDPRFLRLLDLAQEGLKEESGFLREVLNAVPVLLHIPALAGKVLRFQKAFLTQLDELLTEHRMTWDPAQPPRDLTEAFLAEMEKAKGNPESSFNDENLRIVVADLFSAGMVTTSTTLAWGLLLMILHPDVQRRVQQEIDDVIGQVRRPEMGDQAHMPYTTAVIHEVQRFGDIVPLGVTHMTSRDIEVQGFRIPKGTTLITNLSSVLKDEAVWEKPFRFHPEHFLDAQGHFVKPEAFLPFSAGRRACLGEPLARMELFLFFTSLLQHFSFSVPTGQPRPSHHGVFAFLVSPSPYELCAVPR
Protocol: as §1, §2, §3

[7] = molecular target: T7, CYP3A4 (Homo sapiens, UniProt P08684); experiment: Cocktail assay for CYPs in human liver microsomes, midazolam 1′-hydroxylation (3A4); format: biochemical; conditions: 2 μM midazolam, 10 min at 37° C.
T7 construct: 0.1 mg/mL protein human liver microsomes (BD Gentest); tissue BD Gentest; host or cells: human liver microsomes
T7 sequence (P08684 whole entry): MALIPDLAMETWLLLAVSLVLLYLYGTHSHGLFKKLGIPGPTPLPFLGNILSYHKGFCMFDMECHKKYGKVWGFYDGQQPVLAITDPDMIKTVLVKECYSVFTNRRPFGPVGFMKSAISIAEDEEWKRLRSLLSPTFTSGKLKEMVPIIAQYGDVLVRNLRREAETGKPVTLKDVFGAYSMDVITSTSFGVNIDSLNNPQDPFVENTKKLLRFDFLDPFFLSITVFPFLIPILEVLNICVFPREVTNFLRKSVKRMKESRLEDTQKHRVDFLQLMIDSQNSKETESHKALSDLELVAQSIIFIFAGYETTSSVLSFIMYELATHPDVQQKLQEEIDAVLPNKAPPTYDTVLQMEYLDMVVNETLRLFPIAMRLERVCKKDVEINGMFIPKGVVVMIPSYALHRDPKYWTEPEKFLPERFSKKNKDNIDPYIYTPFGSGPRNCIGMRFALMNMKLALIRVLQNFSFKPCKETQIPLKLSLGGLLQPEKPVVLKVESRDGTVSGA
Protocol: as §1, §2, §3

SMILES | IC50 [1] | IC50 [2] | IC50 [3] | IC50 [4] | IC50 [5] | IC50 [6] | IC50 [7]
C[C@@H](c1ccccc1-c1ccc(F)cc1)n1cncc1C(=O)N1CCC(N2CCNC(=O)C2)CC1 [Compound 20] | > 10 µM | > 10 µM | 16.8 µM | 31.2 µM | > 10 µM | > 10 µM | 4.5 nM
C[C@@H](c1ccccc1-c1ccc(F)cc1)n1cncc1C(=O)N1CCC(N2CCNC(=O)CC2)CC1 [Compound 21] | > 10 µM | > 10 µM | > 50 µM | > 50 µM | > 10 µM | > 10 µM | 6.8 nM
CO[C@H]1CN(C2CCN(C(=O)c3cncn3[C@@H](C)c3ccccc3-c3ccc(F)cc3)CC2)C[C@@H]1O [Compound 22] | > 10 µM | > 10 µM | 21.4 µM | > 50 µM | > 10 µM | 9.75 µM | 4 nM
CO[C@@H]1CN(C2CCN(C(=O)c3cncn3[C@@H](C)c3ccccc3-c3ccc(F)cc3)CC2)C[C@H]1O [Compound 23] | > 10 µM | > 10 µM | 26.3 µM | > 50 µM | > 10 µM | 9.72 µM | 3.4 nM
C[C@@H](c1ccccc1-c1ccc(F)cc1)n1cncc1C(=O)N1CCC(NC2COC[C@H]2O)CC1 (stereo partly shown) [Compound 24] | > 10 µM | > 10 µM | > 50 µM | > 50 µM | > 10 µM | > 10 µM | 5.7 nM
C[C@@H](c1ccccc1-c1ccc(F)cc1)n1cncc1C(=O)N1CCC(NC2CCC(O)CC2)CC1 (stereo partly shown) [Compound 25] | > 10 µM | > 10 µM | > 50 µM | > 50 µM | > 10 µM | 5.85 µM | 9.2 nM
C[C@@H](c1ccccc1-c1ccc(F)cc1)n1cncc1C(=O)N1CCC(N2CCn3c(nnc3C(F)(F)F)C2)CC1 [Compound 26] | > 10 µM | 6.29 µM | 14.6 µM | > 50 µM | > 10 µM | ≥ 10 µM | 6.4 nM

Other lines, results leading:

IC50 [1] | IC50 [2] | IC50 [3] | IC50 [4] | IC50 [5] | IC50 [6] | IC50 [7] | SMILES
> 10 µM | > 10 µM | 26.7 µM | > 50 µM | > 10 µM | 7.06 µM | 6 nM | CO[C@H]1CN(C2CCN(C(=O)c3cncn3[C@@H](C)c3ccccc3-c3ccc(F)cc3)CC2)CC[C@H]1O [Compound 11]
> 10 µM | > 10 µM | 41.9 µM | > 50 µM | > 10 µM | 5.08 µM | 6.2 nM | CO[C@@H]1CN(C2CCN(C(=O)c3cncn3[C@@H](C)c3ccccc3-c3ccc(F)cc3)CC2)CC[C@@H]1O [Compound 12]
> 10 µM | > 10 µM | 22.8 µM | > 50 µM | > 10 µM | > 10 µM | 5.3 nM | C[C@@H](c1ccccc1-c1ccc(F)cc1)n1cncc1C(=O)N1CCC(N2CC[C@H](O)[C@@H](F)C2)CC1 [Compound 13]
> 10 µM | > 10 µM | 22 µM | > 50 µM | > 10 µM | > 10 µM | 6.1 nM | C[C@@H](c1ccccc1-c1ccc(F)cc1)n1cncc1C(=O)N1CCC(N2CC[C@@H](O)[C@H](F)C2)CC1 [Compound 14]
> 10 µM | > 10 µM | 20.2 µM | > 50 µM | > 10 µM | > 10 µM | 4.1 nM | C[C@@H](c1ccccc1-c1ccc(F)cc1)n1cncc1C(=O)N1CCC(N2C[C@@H](O)[C@H](F)C2)CC1 [Compound 15]
> 10 µM | > 10 µM | 10.2 µM | 24.3 µM | > 10 µM | > 10 µM | 4.3 nM | C[C@@H](c1ccccc1-c1ccc(F)cc1)n1cncc1C(=O)N1CCC(N2C[C@H](O)[C@@H](F)C2)CC1 [Compound 16]
> 10 µM | > 10 µM | 11.5 µM | 31.6 µM | > 10 µM | 8.6 µM | 4.9 nM | C[C@@H]1CN(C2CCN(C(=O)c3cncn3[C@@H](C)c3ccccc3-c3ccc(F)cc3)CC2)CC[C@@H]1O [Compound 17]
> 10 µM | > 10 µM | > 50 µM | > 50 µM | > 10 µM | > 10 µM | 9.7 nM | C[C@@H]1CN(C2CCN(C(=O)c3cncn3[C@@H](C)c3ccccc3-c3ccc(F)cc3)CC2)CC[C@H]1O [Compound 18]
> 10 µM | > 10 µM | 32.5 µM | > 50 µM | > 10 µM | > 10 µM | 5.7 nM | C[C@@H](c1ccccc1-c1ccc(F)cc1)n1cncc1C(=O)N1CCC(N2CCC(F)C(O)C2)CC1 (stereo partly shown) [Compound 19]
